Results from patent US20260165323A1, “USE OF STROBILURIN TYPE COMPOUNDS FOR COMBATING PHYTOPATHOGENIC FUNGI CONTAINING AN AMINO ACID SUBSTITUTION F129L IN THE MITOCHONDRIAL CYTOCHROME B PROTEIN CONFERRING RESISTANCE TO QO […]” (priority 2022, published 2026).

Key:
Type in all cases: in vivo
[1] = test system: Phakopsora pachyrhizi containing the amino acid substitution F129L in the mitochondrial cytochrome b protein; assay: Use Example 1: protective control of soybean rust on soybeans (PHAKPA P2); conditions: inoculated 2 days after spraying, % diseased leaf area
Outline: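 Protective test: plants were inoculated with the F129L cytochrome b rust strain 2 days after spraying to run-off, then held 24 h humid (~95% RH, 20-24° C) and up to 14 days at 23-27° C, 60-80% RH. Readout was visually assessed percent diseased leaf area.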

[2] = test system: Phakopsora pachyrhizi containing the amino acid substitution F129L in the mitochondrial cytochrome b protein; assay: Use Example 2: protective control of soybean rust on soybeans (PHAKPA P6); conditions: inoculated six days after spraying, % diseased leaf area
Outline: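 Disease was rated visually as % diseased leaf area up to 14 days after inoculation (23–27°C, 60–80% RH). Inoculum was P. pachyrhizi carrying cytochrome b F129L, followed by 24 h in a humid chamber (~95% RH). Inoculation came six days after protective spraying of seedlings with compound in acetone/DMSO–Wettol–water.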

Puccinia recondita [3] = assay: Use Example 3: curative control of brown rust on wheat (PUCCRT K4); conditions: % diseased leaf area
Outline: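 Wheat seedlings inoculated with Puccinia recondita spores, held 24 h at 95–99% RH, 20–24° C in dark, then 3 days in greenhouse before spraying to run-off (curative). Compound in acetone/DMSO–Wettol–water. After 5–7 further days at 20–24° C, 65–70% RH, % diseased leaf area scored visually.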

Puccinia recondita [4] = assay: Use Example 4: preventative control of brown rust on wheat (PUCCRT P7); conditions: inoculated seven days after spraying, % diseased leaf area
Outline: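 Preventative test: Puccinia recondita spores dusted onto wheat seedlings seven days after spraying their first two leaves to run-off with the formulated compound. After 24 h humid dark incubation at 20–24 °C and 9–11 days of greenhouse growth at 65–70% RH, infection rated visually as % diseased leaf area.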

SMILES | % PHAKPA (F129L) Disease level P2 at 4 ppm [1] [%] | % PHAKPA (F129L) Disease level P2 at 16 ppm [1] [%] | % PHAKPA (F129L) Disease level P6 at 4 ppm [2] [%] | % PHAKPA (F129L) Disease level P6 at 16 ppm [2] [%] | % PUCCRT Disease level K4 at 4 ppm (Puccinia recondita [3]) [%] | % PUCCRT Disease level K4 at 16 ppm (Puccinia recondita [3]) [%] | % PUCCRT Disease level P7 at 4 ppm (Puccinia recondita [4]) [%] | % PUCCRT Disease level P7 at 16 ppm (Puccinia recondita [4]) [%]
CCOC/C(=N\OCc1c(Cl)cccc1/C(=N\OC)C(=O)OC)c1ccc(Cl)cc1 [compound 44] | 95 | 55 | 80 | 68 | 75 | 73 | 77 | 37
CCOC/C(=N\OCc1c(Cl)cccc1/C(=C\OC)C(=O)OC)c1ccc(Cl)cc1 [compound 45] | 60 | 8 | 70 | 15 | 80 | 68 | 82 | 27
CCOC/C(=N\OCc1c(Cl)cccc1/C(=N\OC)C(=O)NC)c1ccc(Cl)cc1 [compound 46] | 80 | 20 | 68 | 16 | 67 | 38 | 60 | 10
CCOC/C(=N\OCc1c(Cl)cccc1/C(=N\OC)C(=O)NC)c1ccc(F)cc1 [compound 48] | 80 | 7 | 80 | 17 | 77 | 50 | 63 | 17
CNC(=O)/C(=N/OC)c1cccc(Cl)c1CO/N=C(\COC)c1ccccc1Cl [compound 50] | 92 | 32 | 87 | 36 | 75 | 72 | 70 | 33
CCOC/C(=N\OCc1c(Cl)cccc1/C(=N\OC)C(=O)OC)c1ccccc1 [compound 53] | 88 | 57 | 93 | 80 | 83 | 78 | 87 | 78
CCOCC(=NOCc1c(Cl)cccc1C(=COC)C(=O)OC)c1ccccc1 [compound 54] | 21 | 1 | 20 | 3 | 77 | 30 | 75 | 27
